{"source": "patent US5693812A", "about": "“Polymorphic forms of an angiotensin II antagonist” (priority 1996, dated 1997)", "assay_type_in_all_cases": "physicochemical", "key": {"[1]": {"assay": "Thermogravimetric analysis (TGA) weight loss / water content", "conditions": "potassium salt; for hydration state: TGA", "method": "(§1) The crystal forms were characterized and evaluated by measuring the heats of solution or solution calorimetry, solubility data, x-ray powder diffraction patterns (XRPD), differential scanning calorimetry (DSC) and thermogravimetric analysis (TGA). Heats of solution at 30° C. were obtained in the Setaram C-80 calvet calorimeter with sample size of 7-13 mg dissolved into 5 ml of 88% DMSO 12% water for a final concentration of 1.4-2.6 mg/ml. XRPD patterns were recorded using an automated Siemens X-ray diffractometer with copper tube K alpha radiation. DSC and TGA were conducted using a Perkin Elmer series 7 instrument with a scan rate of 10° C./min over the temperature range of 30°-300° C. Utilizing these techniques the thermodynamic stability of the polymorphs of 3-[2'-(N-benzoyl)sulfonamidobiphenyl-4-yl]methyl-5,7-dimethyl-2-ethyl-3H-imidazo[4,5-b]pyridine potassium salt was determined.\nStep K: Preparation of 3-[2'-(N-Benzyl)sulfonamidobiphenyl-4-yl]methyl-5,7-dimethyl-2-ethyl-3H-imidazo[4,5-b]pyridine potassium salt--(Forms I, Id and W) [drawing 13] In a 72-L four-necked flask fitted with an overhead stirrer and a reflux condenser, 3-[2'-(N-benzyl)sulfonamidobiphenyl-4-yl]methyl-5,7-dimethyl-2-ethyl-3H-imidazo[4,5-b]pyridine 1 (5.04 kg, 9.6 mol), methanol (14.5 L) and water (2.5 L) are mixed. The slurry is warmed to 62° C. under a nitrogen atmosphere and 1.94M potassium hydroxide (4.96 L, 9.61 mol) is added to the slurry at 62° C. over 1.5 hours to provide a homogeneous solution. Isopropyl acetate (13.83 L) is then added at 65° C. and the mixture is warmed to 70° C. The homogeneous solution is filtered at 70° C. to remove any particulates that are present. The filtrate is diluted with isopropyl acetate (1.3 L), methanol (0.6 L) and water (0.1 L). […] The homogeneous mixture is cooled to 52° C. over 2 hours, whereupon potassium salt seed of form \"I\" (140 g) is added. This mixture becomes cloudy after 30 min. The mixture is aged for 10 hours at 52° C. The white slurry is cooled to 48° C. over 1 hour and stirred for 3 hours. Finally, the crystallization mixture is cooled to 0° C. at a rate of 1° C./12.5 min. and aged for 2 hours at 0° C. […] The solid is centrifuged at 0° C. and displacement-washed with a mixture of 2:2:1 cold (0° C.) isopropyl acetate/methanol/water (5.65 L) followed by isopropyl acetate (2.3 L). The solid is semi-dried to a TG of 10-15% by spin drying. The mother liquors contain 21 wt % of 3-[2'-(N-benzyl)sulfonamidobiphenyl-4-yl]methyl-5,7-dimethyl-2-ethyl-3H-imidazo[4,5-b]pyridine potassium salt. At this stage, the crystal form of the product is form \"W\". The product is powdered by passing through a screen (size=12). The solid is dried by passing dry nitrogen over the solid under vacuum at 22° C. for 5 hours to yield 4.55 kg of 3-[2'-(N-benzyl)sulfonamidobiphenyl-4-yl]methyl-5,7-dimethyl-2-ethyl-3H-imidazo[4,5-b]pyridine potassium salt as the form \"I\" with a purity of 99.7% (assay-HClO4 titration) and TG of 7-10%. Generally, the wet cake consists of residual water, methanol and isopropyl acetate. The K-salt is considered dry when <0.05% methanol and isopropyl acetate are detected by ^1 H NMR. The product is further powdered by passing the solid through a Quadro Comil (model 197s, screen size=1143 mm round impeller) to yield 4.5 kg. The product is dried to a TG of 4.6-5.5% by the passage of dry nitrogen over the solid under vacuum at 22° C. After 10 hours, 4.24 kg (78%) of the potassium salt as the form \"I\" is obtained with a TG of […] (99.7 wt % by titration). The water content can be monitored by TG analysis. The TG of the potassium salt of form \"I\" is 4.6-5.5%. The crystal form is monitored by X-ray analysis. When the potassium salt is over dried, the crystal form converts to form \"Id\" (TG<4.6%). […]"}, "[2]": {"assay": "Heat of solution by solution calorimetry (Setaram C-80)", "conditions": "potassium salt", "method": "The heat of solution of different crystal forms of 3-[2'-(N-benzoyl)sulfonamidobiphenyl-4-yl]methyl-5,7-dimethyl-2-ethyl-3H-imidazo[4,5-b]pyridine potassium salt were studied at 30° C. The heat of solution is a measure of the crystal lattice energy. […] Heats of solution had to be conducted in a solvent which dissolved the samples quickly without conversion to another polymorph. This really limited solvents which could be used. Dimethylsulfoxide was chosen for this reason. The heats of solution therefore have contributions from the lattice energy of the solid as well as heat of dilution of lattice water in dimethylsulfoxide. The calorimeter therefore produces a complex signal that has an exothermic contribution from the water and an additional contribution from the energy required to dissolve the crystal. […] Additional heats of solution were determined in a mixed solvent system of 88% dimethylsulfoxide and 12% water. This system was used to minimize the contribution of moisture to the heat of solution.\nas §1, with “C.” for “C. Utilizing these techniques the thermodynamic stability of the polymorphs of 3-[2'-(N-benzoyl)sulfonamidobiphenyl-4-yl]methyl-5,7-dimethyl-2-ethyl-3H-imidazo[4,5-b]pyridine potassium salt was determined.”"}, "[3]": {"assay": "Crystal form conversion in acetonitrile, with or without water (XRPD)", "conditions": "overnight, room temperature, potassium salt; for crystal form after stirring/shaking in acetonitrile: no added water; for crystal form after shaking in acetonitrile-water: acetonitrile with added water", "text": "Since all of the crystal forms of 3-[2'-(N-benzoyl)sulfonamidobiphenyl-4-yl]methyl-5,7-dimethyl-2-ethyl-3H-imidazo[4,5-b]pyridine potassium salt were changed to a single crystal form \"D\", in water, the effect of a non-aqueous solvent was studied. 3-[2'-(N-benzoyl)sulfonamidobiphenyl-4-yl]methyl-5,7-dimethyl-2-ethyl-3H-imidazo[4,5-b]pyridine potassium salt, Forms \"A\", \"B\", \"C\", and \"D\" were stirred overnight at room temperature in acetonitrile. The remaining solids were filtered and then vacuum dried overnight at room temperature. The crystallinity of the solids was examined by XRPD spectroscopy.\nAll of the crystal forms were converted to a single crystal form (\"D\") in water, but in acetonitrile to two different crystal forms. […] To explore the role of water in the above experiments, 3-[2'-(N-benzoyl)sulfonamidobiphenyl-4-yl]methyl-5,7-dimethyl-2-ethyl-3H-imidazo[4,5-b]pyridine potassium salt, form \"C\" (an anhydrous crystal form) was this time suspended in acetonitrile with added water (water was 10% of the solid weight). As a control experiment Form \"C\" was also suspended in acetonitrile with no added water. The samples were shaken overnight at room temperature. The remaining solids were filtered and vacuum dried overnight at room temperature."}, "[4]": {"assay": "Equilibrium solubility in water at room temperature", "conditions": "room temperature"}, "[5]": {"assay": "Crystal form stability in water (XRPD of remaining solid)", "conditions": "room temperature, potassium salt", "text": "[13) S. R. Byre. \"Solid State Chemistry of Drugs.\" Academic Press, New York, 1982.] […] Recrystallization of any of these lots from solvents like ethanol, methanol, isopropanol, acetone, etc. gave new crystal forms different from the original forms. […] Solubility in water at room temperature was one of these techniques. The equilibrium solubility in water, at room temperature for five polymorphs (Forms \"B\", \"C\", \"D\", \"F\", and \"G\") were the same (Table 1). When the remaining solids were filtered, air dried or vacuum dried overnight at room temperature the XRPD patterns had changed from the initial patterns and all were exactly the same. These experiments indicate that all of the crystal forms converted in water at room temperature to a new crystalline form designated […].\nThe remaining form \"I\" solid after equilibrium solubility studies in water was removed by filtration and vacuum dried overnight at room temperature.\nAfter the discovery of form \"I\", form \"D\" could no longer be isolated in our laboratory. TGA studies indicate that form \"I\" of 3-[2'-(N-benzoyl)sulfonamidobiphenyl-4-yl]methyl-5,7-dimethyl-2-ethyl-3H-imidazo[4,5-b]pyridine potassium salt is a dihydrate (FIG. 4)."}, "[6]": {"assay": "Crystal form stability on heating"}}, "note": "“Also recorded” adds a separate entry of the source. Structures can show the parent of a compound that is named as a salt."}
{"smiles": "CCc1nc2c(C)cc(C)nc2n1Cc1ccc(-c2ccccc2S(=O)(=O)NC(=O)c2ccccc2)cc1", "note": "[Form A, 3-[2'-(N-benzoyl)sulfonamidobiphenyl-4-yl]methyl-5,7-dimethyl-2-ethyl-3H-imidazo[4,5-b]pyridine potassium salt]", "values": [{"measurement": "% Weight Loss (Δ 30-150° C. by TGA)", "setting": "[1]; listed as A", "value": 3.4, "unit": "%"}, {"measurement": "hydration state", "setting": "[1]; listed as A", "value": "hydrated"}, {"measurement": "ΔH solution DMSO at 30° C.", "setting": "[2]; 30° C., listed as A", "value": "4.92 ± 0.47", "unit": "J/g"}, {"measurement": "crystal form after stirring/shaking in acetonitrile", "setting": "[3]; listed as A", "value": "converted to a new crystal form (\"I\"); also recorded: changed to form \"I\""}]}
{"smiles": "CCc1nc2c(C)cc(C)nc2n1Cc1ccc(-c2ccccc2S(=O)(=O)NC(=O)c2ccccc2)cc1", "note": "[Form B, 3-[2'-(N-benzoyl)sulfonamidobiphenyl-4-yl]methyl-5,7-dimethyl-2-ethyl-3H-imidazo[4,5-b]pyridine potassium salt]", "values": [{"measurement": "equilibrium solubility in water, comparison of five polymorphs", "setting": "[4]", "value": "the same"}, {"measurement": "% Weight Loss (Δ 30-150° C. by TGA)", "setting": "[1]; listed as B", "value": 0.5, "unit": "%"}, {"measurement": "hydration state", "setting": "[1]; listed as B", "value": "anhydrous"}, {"measurement": "ΔH solution DMSO at 30° C.", "setting": "[2]; 30° C., listed as B", "value": "17.78 ± 0.52", "unit": "J/g"}, {"measurement": "crystal form after stirring/shaking in acetonitrile", "setting": "[3]; listed as B", "value": "changed to another new form (\"J\")"}]}
{"smiles": "CCc1nc2c(C)cc(C)nc2n1Cc1ccc(-c2ccccc2S(=O)(=O)NC(=O)c2ccccc2)cc1", "note": "[Form C, 3-[2'-(N-benzoyl)sulfonamidobiphenyl-4-yl]methyl-5,7-dimethyl-2-ethyl-3H-imidazo[4,5-b]pyridine potassium salt]", "values": [{"measurement": "% Weight Loss (Δ 30-150° C. by TGA)", "setting": "[1]; listed as C", "value": 0.6, "unit": "%"}, {"measurement": "hydration state", "setting": "[1]; listed as C", "value": "anhydrous"}, {"measurement": "ΔH solution DMSO at 30° C.", "setting": "[2]; 30° C., listed as C", "value": "29.75 ± 0.46", "unit": "J/g"}, {"measurement": "crystal form after shaking in acetonitrile-water", "setting": "[3]; listed as C", "value": "converted to form \"I\""}, {"measurement": "crystal form after stirring/shaking in acetonitrile", "setting": "[3]; listed as C", "value": "changed to another new form (\"J\")"}]}
{"smiles": "CCc1nc2c(C)cc(C)nc2n1Cc1ccc(-c2ccccc2S(=O)(=O)NC(=O)c2ccccc2)cc1", "note": "[Form D, 3-[2'-(N-benzoyl)sulfonamidobiphenyl-4-yl]methyl-5,7-dimethyl-2-ethyl-3H-imidazo[4,5-b]pyridine potassium salt]", "values": [{"measurement": "solubility", "setting": "[4]; water, Table I", "value": "10.4 ± 0.7", "unit": "mg/mL"}, {"measurement": "% Weight Loss (Δ 30-150° C. by TGA)", "setting": "[1]; listed as D", "value": "12-14%"}, {"measurement": "hydration state", "setting": "[1]; listed as D", "value": "hydrated"}, {"measurement": "ΔH solution 88% DMSO/12% H2O", "setting": "[2]; 88% DMSO/12% H2O, 30° C., listed as D", "value": "-16.33 ± 1.61", "unit": "J/g"}, {"measurement": "ΔH solution DMSO at 30° C.", "setting": "[2]; 30° C., listed as D", "value": "-1.36 ± 0.42", "unit": "J/g"}, {"measurement": "thermodynamic stability", "setting": "[2]; from heats of solution and equilibrium solubility, listed as D", "value": "metastable with respect to \"I\""}, {"measurement": "crystal form after suspension in water", "setting": "[5]; listed as D", "value": "converted to form \"I\""}, {"measurement": "crystal form after heating at 40° C. for 30 minutes", "setting": "[6]; 40° C., 30 minutes", "value": "did not change"}, {"measurement": "crystal form after heating at 40° C. for 24 hours", "setting": "[6]; 40° C., 24 hours", "value": "crystallinity was reduced and XRPD pattern changed to a new form called \"F\""}, {"measurement": "crystal form after heating up to 190° C.", "setting": "[6]; up to 190° C., a few minutes", "value": "produced a new crystalline anhydrous form designated \"G\""}, {"measurement": "crystal form after shaking in acetonitrile-water", "setting": "[3]; listed as D", "value": "the final crystal form was also \"I\""}, {"measurement": "crystal form after stirring/shaking in acetonitrile", "setting": "[3]; listed as D", "value": "converted to a new crystal form (\"I\"); also recorded: changed to form \"I\""}]}
{"smiles": "CCc1nc2c(C)cc(C)nc2n1Cc1ccc(-c2ccccc2S(=O)(=O)NC(=O)c2ccccc2)cc1", "note": "[Form F, 3-[2'-(N-benzoyl)sulfonamidobiphenyl-4-yl]methyl-5,7-dimethyl-2-ethyl-3H-imidazo[4,5-b]pyridine potassium salt]", "values": [{"measurement": "crystal form after suspension in water", "setting": "[5]; listed as F", "value": "converted to form \"D\""}]}
{"smiles": "CCc1nc2c(C)cc(C)nc2n1Cc1ccc(-c2ccccc2S(=O)(=O)NC(=O)c2ccccc2)cc1", "note": "[Form G, 3-[2'-(N-benzoyl)sulfonamidobiphenyl-4-yl]methyl-5,7-dimethyl-2-ethyl-3H-imidazo[4,5-b]pyridine potassium salt]", "values": [{"measurement": "% Weight Loss (Δ 30-150° C. by TGA)", "setting": "[1]; listed as G", "value": 0, "unit": "%"}, {"measurement": "hydration state", "setting": "[1]; listed as G", "value": "anhydrous"}, {"measurement": "ΔH solution DMSO at 30° C.", "setting": "[2]; 30° C., listed as G", "value": "8.51 ± 0.66", "unit": "J/g"}, {"measurement": "crystal form after suspension in water", "setting": "[5]; listed as G", "value": "converted to form \"D\""}]}
{"smiles": "CCc1nc2c(C)cc(C)nc2n1Cc1ccc(-c2ccccc2S(=O)(=O)NC(=O)c2ccccc2)cc1", "note": "[Form J, 3-[2'-(N-benzoyl)sulfonamidobiphenyl-4-yl]methyl-5,7-dimethyl-2-ethyl-3H-imidazo[4,5-b]pyridine potassium salt]", "values": [{"measurement": "% Weight Loss (Δ 30-150° C. by TGA)", "setting": "[1]; listed as J", "value": 0.7, "unit": "%"}]}
